Values of other authors as cited in patent publication US12668568B2, “Adamantanyl-substituted benzamide compounds and their use as P2X7 receptor antagonists” (The University of Sydney, priority 2018, dated 2026).

Conditions: literature log D7.4 values; cited from earlier work

Going from `CC(C)=O` [acetone] to `c1ccc(N(c2ccccc2)c2ccccc2)cc1` [triphenylamine], the “log D7.4 of calibration standards” value rises from −0.24 to 5.74.

In the case of `Nc1ccccc1` [aniline], the “log D7.4 of calibration standards” value is listed as 0.90.
